Source: ChEMBL document CHEMBL3352078, “Repurposing human PDE4 inhibitors for neglected tropical diseases: design, synthesis and evaluation of cilomilast analogues as Trypanosoma brucei PDEB1 inhibitors” (Bioorg Med Chem Lett, 2014)

Legend:
[1] = target: T1, Class 1 phosphodiesterase PDEB1 (Trypanosoma brucei) (UniProt Q8WQX9); assay: Inhibition of Trypanosoma brucei recombinant PDEB1 at 10 uM pre-incubated for 5 mins prior to substrate addition
T1 sequence (whole entry): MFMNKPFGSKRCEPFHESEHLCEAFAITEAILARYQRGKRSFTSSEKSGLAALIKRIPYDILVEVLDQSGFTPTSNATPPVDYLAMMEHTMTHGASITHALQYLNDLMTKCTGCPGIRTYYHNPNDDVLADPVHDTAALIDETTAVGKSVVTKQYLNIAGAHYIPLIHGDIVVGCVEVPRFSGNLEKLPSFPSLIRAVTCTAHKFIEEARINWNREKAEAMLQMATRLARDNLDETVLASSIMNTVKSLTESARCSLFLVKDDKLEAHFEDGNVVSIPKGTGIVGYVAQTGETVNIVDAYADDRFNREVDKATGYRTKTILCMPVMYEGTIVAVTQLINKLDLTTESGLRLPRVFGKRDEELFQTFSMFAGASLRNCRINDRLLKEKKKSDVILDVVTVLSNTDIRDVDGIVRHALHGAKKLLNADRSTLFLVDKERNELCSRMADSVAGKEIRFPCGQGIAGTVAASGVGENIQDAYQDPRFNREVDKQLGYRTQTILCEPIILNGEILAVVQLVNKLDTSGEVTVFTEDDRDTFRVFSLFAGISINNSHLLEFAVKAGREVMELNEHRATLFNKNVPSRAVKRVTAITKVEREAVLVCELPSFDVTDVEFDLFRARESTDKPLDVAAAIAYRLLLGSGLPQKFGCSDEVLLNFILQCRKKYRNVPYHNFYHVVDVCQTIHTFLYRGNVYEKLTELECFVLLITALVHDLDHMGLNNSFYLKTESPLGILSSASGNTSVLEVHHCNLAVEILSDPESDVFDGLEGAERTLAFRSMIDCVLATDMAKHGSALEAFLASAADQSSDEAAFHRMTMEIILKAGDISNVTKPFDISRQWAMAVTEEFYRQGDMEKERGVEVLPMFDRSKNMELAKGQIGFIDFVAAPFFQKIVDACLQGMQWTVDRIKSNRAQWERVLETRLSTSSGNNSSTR

[2] = target: T2, Class 1 phosphodiesterase PDEB1 (Trypanosoma brucei, UniProt Q8WQX9); assay: Inhibition of Trypanosoma brucei recombinant PDEB1 pre-incubated for 5 mins prior to substrate addition
T2 sequence (Q8WQX9 whole entry): T1 sequence (whole entry)

[3] = Cytotoxicity against mouse NIH/3T3 cells by Alamar blue cell viability assay; format: cell-based, NIH3T3; details: read-out: TC50 (the source's name)
Trypanosoma brucei = assay: Antiparasitic activity against Trypanosoma brucei after 22 to 24 hrs by Alamar blue cell viability assay; format: functional, organism-based
[4] = Inhibition of Trypanosoma brucei PDEB2

COc1ccc([C@]2(C#N)CC[C@H](C(=O)O)CC2)cc1OCc1ccccc1
inhibition [1]: 20%

COc1ccc([C@]2(C#N)CC[C@@H](C(=O)OC)CC2)cc1OCc1ccccc1
inhibition [1]: 40%

COc1ccc([C@]2(C#N)CC[C@H](C(=O)OC)CC2)cc1OCc1ccccc1
inhibition [1]: 28%

CCOC(=O)CN1CCC(C#N)(c2ccc(OC)c(OC3CCCC3)c2)CC1
inhibition [1]: 6%

COc1ccc([C@]2(C#N)CC[C@@H](C(=O)OC)CC2)cc1OC1CCCC1
inhibition [1]: 31%

COc1ccc(OCCCCOc2cc([C@]3(C#N)CC[C@@H](C(=O)O)CC3)ccc2OC)cc1
IC50 [2]: 3.5 µM
inhibition [1]: 79%

COc1ccc(C2(C#N)CCNCC2)cc1OC1CCCC1
inhibition [1]: 19%

COc1ccc([C@]2(C#N)CC[C@@H](C(=O)O)CC2)cc1OCCCCCOc1ccccc1
IC50 [2]: 9.8 µM
inhibition [1]: 54%

COc1ccc([C@]2(C#N)CC[C@@H](C(=O)O)CC2)cc1OCCCCOc1ccc(C#N)cc1
IC50 [2]: 3.6 µM
inhibition [1]: 87%

COc1ccc([C@]2(C#N)CC[C@@H](C(=O)O)CC2)cc1OCc1ccccn1
inhibition [1]: 33%

COc1ccc([C@]2(C#N)CC[C@@H](C(=O)O)CC2)cc1OCc1ccncc1
inhibition [1]: 11%

COc1ccc([C@]2(C#N)CC[C@H](C(=O)OC)CC2)cc1OC1CCCC1
inhibition [1]: 26%

COc1ccc([C@]2(C#N)CC[C@@H](C(=O)O)CC2)cc1OCCCCOc1ccc(C)cc1
IC50 [2]: 4.9 µM
inhibition [1]: 74%

COc1ccc([C@]2(C#N)CC[C@@H](C(=O)O)CC2)cc1OC1CCCC1 [CILOMILAST]
CC50 [3]: > 50 µM
IC50 [2]: 16 µM
EC50 (Trypanosoma brucei): > 50 µM

COc1ccc([C@]2(C#N)CC[C@@H](C(=O)O)CC2)cc1OCc1ccccc1
IC50 [2]: 12 µM
inhibition [1]: 77%

COc1ccc([C@]2(C#N)CC[C@@H](C(=O)O)CC2)cc1OCCCOc1ccccc1
IC50 [2]: 11 µM
inhibition [1]: 66%

COc1ccc(C2(C#N)CCN(CC(=O)O)CC2)cc1OC1CCCC1
inhibition [1]: 11%

COc1ccc([C@]2(C#N)CC[C@@H](C(=O)O)CC2)cc1OCCCCOc1ccc(F)cc1
IC50 [2]: 9.2 µM
inhibition [1]: 79%

COc1ccc([C@]2(C#N)CC[C@@H](C(=O)O)CC2)cc1OCCCCOc1ccc(-c2nn[nH]n2)cc1
IC50 [2]: 7.9 µM
inhibition [1]: 69%

COc1ccc([C@]2(C#N)CC[C@H](C(=O)O)CC2)cc1OC1CCCC1
inhibition [1]: 9.3%

COc1ccc([C@]2(C#N)CC[C@@H](C(=O)O)CC2)cc1OCCCCOc1ccccc1
CC50 [3]: > 50 µM
IC50 [4]: 2.1 µM
EC50 (Trypanosoma brucei): 26 µM
inhibition [1]: 96%
